Experimental data reported in PubChem BioAssay (NCI).
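Interpolation was linear, between the two tested concentrations surrounding the appropriate level; five concentrations were tested over 48 hours in 96-well plates. GI50: concentration for 50% inhibition of growth. TGI denotes the concentration required for complete inhibition of growth.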

Assays:
Assay in all cases: DTP human tumour cell line panel, 48 h
COLO 205 colon = tested on: COLO 205 colon
786-0 renal = tested on: 786-0 renal
SK-MEL-28 melanoma = tested on: SK-MEL-28 melanoma
M14 melanoma = tested on: M14 melanoma
ACHN renal = tested on: ACHN renal
A549 NSCLC = tested on: A549 NSCLC
RXF 393 renal = tested on: RXF 393 renal
SR leukemia = tested on: SR leukemia
PC-3 prostate = tested on: PC-3 prostate
MDA-MB-231 breast = tested on: MDA-MB-231 breast

SMILES	TGI (COLO 205 colon)	TGI (786-0 renal)	TGI (SK-MEL-28 melanoma)	TGI (M14 melanoma)	TGI (ACHN renal)	TGI (A549 NSCLC)	TGI (RXF 393 renal)	TGI (SR leukemia)	TGI (PC-3 prostate)	TGI (MDA-MB-231 breast)	GI50 (COLO 205 colon)	GI50 (786-0 renal)	GI50 (SK-MEL-28 melanoma)	GI50 (M14 melanoma)	GI50 (ACHN renal)	GI50 (PC-3 prostate)	GI50 (A549 NSCLC)	GI50 (MDA-MB-231 breast)
COc1nc2nccc-2c2occn12	> 100 µM	> 100 µM	> 100 µM	> 100 µM	> 100 µM	> 100 µM	> 100 µM											
CC(=O)c1cc([N+](=O)[O-])ccc1OCC(=O)O	> 100 µM	> 100 µM	> 100 µM	> 100 µM	> 100 µM	> 100 µM	> 100 µM											
CN=S(=O)(c1ccccc1)c1ccccc1	> 100 µM	> 100 µM	> 100 µM	> 100 µM	> 100 µM	> 100 µM	> 100 µM	> 100 µM										
O=NNc1nc(-c2cccnc2)nc2ccccc12	> 100 µM	> 100 µM	> 100 µM	> 100 µM	> 100 µM	> 100 µM			> 100 µM	> 100 µM								
Cc1cccc(C(C)C)c1NC(=O)C(=O)CC(=O)c1c(C)n([O-])c2ccccc2[n+]1=O	88.3 µM	> 100 µM	> 100 µM	95.3 µM	> 100 µM	> 100 µM	> 100 µM	78.5 µM										
CC(C)C1CC(O)O[C@@H]([C@@H](C)[C@H]2CC(=O)[C@@H]3[C@@H]4[C@@H](O)[C@H](O)[C@H]5[C@@H](O)[C@H](O)CC[C@]5(C)[C@H]4CC[C@]23C)C1 (some centres undefined)	> 100 µM	> 100 µM	> 100 µM	> 100 µM	62.1 µM	> 100 µM	28.9 µM	> 100 µM										
N#CC(C(=O)C(=O)NCCCNC(=O)C(=O)C(C#N)c1ccccc1)c1ccccc1 (centres undefined)	> 100 µM	> 100 µM	> 100 µM	> 100 µM	> 100 µM	> 100 µM	> 100 µM	> 100 µM										
O=c1cc(-c2ccccc2)c2cc3c(=O)ccoc3cc2o1	> 100 µM	> 100 µM	> 100 µM	> 100 µM	> 100 µM	> 100 µM	> 100 µM	> 100 µM										
CSc1nc2c(nc(N)n2C2OCC(O)C(O)C2O)c(=O)n1C (centres undefined)	> 100 µM	> 100 µM	> 100 µM	> 100 µM	> 100 µM	> 100 µM	> 100 µM	> 100 µM										
COc1cc(CNc2ccc(C(C)C)cc2)cc(OC)c1OC		30.2 µM	72.7 µM		60.1 µM	34.2 µM	14.1 µM											
CC1=C(O)C(=O)C2C(=O)C1C(C)C2c1ccc(Cl)cc1 (centres undefined)	> 100 µM	> 100 µM	> 100 µM	> 100 µM	> 100 µM	> 100 µM	> 100 µM	> 100 µM										
N#C/C(=C\c1cccc(O)c1)C(N)=O	> 100 µM	> 100 µM	> 100 µM	> 100 µM	> 100 µM	> 100 µM	> 100 µM											
CC1S(=O)(=O)OCCOS1(=O)=O	> 100 µM	> 100 µM	> 100 µM	> 100 µM	> 100 µM	> 100 µM	> 100 µM											
COc1cccc(C(=O)C2C(=O)N(C)CCc3ccccc32)c1OC (centres undefined)	> 100 µM	> 100 µM	> 100 µM	> 100 µM	> 100 µM	> 100 µM	> 100 µM											
CC/C=C\C/C=C\C/C=C\CCCCCCCC(=O)OCC	> 100 µM	> 100 µM	> 100 µM	> 100 µM	> 100 µM	> 100 µM		> 100 µM										
Cc1ccc(NC(=O)/C(=N\Nc2ccc([N+](=O)[O-])cc2[N+](=O)[O-])C2C(=O)NC(=O)NC2=O)cc1	> 100 µM	> 100 µM	> 100 µM	> 100 µM	> 100 µM	> 100 µM	> 100 µM	> 100 µM										
CCOC(=O)NN1C(=O)C(=P(c2ccccc2)(c2ccccc2)c2ccccc2)C(C(=O)OCC)=C1C	> 100 µM	> 100 µM		> 100 µM	> 100 µM	> 100 µM	> 100 µM	> 100 µM										
CCOC(=O)C(=O)Nc1c(C)cccc1C	> 100 µM	> 100 µM	> 100 µM	> 100 µM	> 100 µM	> 100 µM	> 100 µM											
COc1cc([C@@H]2c3cc4c(cc3[C@@H](NC(=O)c3ccccc3)C3COC(=O)[C@@H]32)OCO4)cc(OC)c1O (some centres undefined)	92.8 µM	21.9 µM	87.7 µM	24.8 µM	5.55 µM	16.6 µM	74.4 µM											

SMILES	TGI (COLO 205 colon)	TGI (786-0 renal)	TGI (SK-MEL-28 melanoma)	TGI (M14 melanoma)	TGI (ACHN renal)	TGI (A549 NSCLC)	TGI (RXF 393 renal)	TGI (SR leukemia)	TGI (PC-3 prostate)	TGI (MDA-MB-231 breast)	GI50 (COLO 205 colon)	GI50 (786-0 renal)	GI50 (SK-MEL-28 melanoma)	GI50 (M14 melanoma)	GI50 (ACHN renal)	GI50 (PC-3 prostate)	GI50 (A549 NSCLC)	GI50 (MDA-MB-231 breast)
COc1ccc2oc3cccc(NCCN(C)C)c3c(=O)c2c1	19.1 µM	23.5 µM	32.9 µM	29.4 µM	23.2 µM	28.2 µM	26.4 µM	27.1 µM										
O=C(CSC(=S)N1CCOCC1)Nc1nc2c(s1)CCCC2	> 100 µM	> 100 µM	> 100 µM	> 100 µM	> 100 µM	> 100 µM		> 100 µM										
NNC(=O)CCC(=O)NC1C2CC3CC(C2)CC1C3 (centres undefined)	> 100 µM	> 100 µM	> 100 µM	> 100 µM	> 100 µM	> 100 µM	> 100 µM											
COc1ccc(-c2cn(-c3ccccc3)c(-c3ccccc3)n2)cc1OC	12.3 µM	13.5 µM	26.2 µM	20 µM	21.4 µM	16 µM			24.7 µM	23.5 µM	2.68 µM	3.56 µM	12 µM	5.69 µM	9.55 µM	5.53 µM	3.71 µM	10.8 µM
COc1cc(/C=C/C(=O)c2sc(Nc3ccccc3)nc2C)ccc1O	> 100 µM	> 100 µM	> 100 µM		> 100 µM	> 100 µM	> 100 µM											
COc1ccc(O)c(C#N)c1C#N	> 100 µM	> 100 µM		> 100 µM	> 100 µM	> 100 µM	> 100 µM											
CCCCCCCCCc1cc(=O)c2ccc(O)cc2o1	> 100 µM	> 100 µM	> 100 µM	> 100 µM	> 100 µM	> 100 µM	> 100 µM	> 100 µM										
CC(=O)n1c2ccccc2c2nc3nc(Oc4ccc(C)cc4)c4ccccc4c3cc21	> 100 µM	> 100 µM	> 100 µM	> 100 µM	> 100 µM	> 100 µM		> 100 µM										
CN(C)CCCN1CCc2c([nH]c3ccccc23)C1c1cccnc1 (centres undefined)	> 100 µM	> 100 µM	> 100 µM	> 100 µM	> 100 µM	> 100 µM	> 100 µM	> 100 µM										
O=C(O)c1cc(=O)c2[nH]c3ccccc3c2s1	> 100 µM	> 100 µM	> 100 µM	> 100 µM	> 100 µM	> 100 µM	> 100 µM											
Cc1cc(=O)oc2cc3c(cc12)Oc1ccccc1O3	> 100 µM	> 100 µM	> 100 µM	> 100 µM	> 100 µM	> 100 µM	> 100 µM	> 100 µM										
CCCCCCCCCCCCCCCC(=O)OCC1OC(n2c(O)c(N=NC(N)=S)c3ccc([N+](=O)[O-])cc32)C(OC(C)=O)C1OC(C)=O (centres undefined)	> 100 µM	> 100 µM	> 100 µM	> 100 µM	> 100 µM	> 100 µM	> 100 µM	> 100 µM										
NC(C(=O)[O-])C(=O)[O-].NC1CCCCC1N.[Pt+4]	> 100 µM	> 100 µM	> 100 µM	> 100 µM	> 100 µM	> 100 µM			> 100 µM	> 100 µM	2.84 µM	5.79 µM	12.7 µM	20.2 µM	11.2 µM	4.67 µM	2.63 µM	31.8 µM
O=C1C2=C(c3ccccc31)C(c1ccccc1)NC(=S)N2 (centres undefined)	> 100 µM	85 µM	> 100 µM	> 100 µM	> 100 µM	> 100 µM												
COc1ccc(NC(=O)c2cc(OC)c(OC)c(OC)c2)cc1	> 71.9 µM	> 100 µM	94.4 µM	> 100 µM	> 100 µM	> 100 µM	94.3 µM											
O=C(CN1CCN(c2ccccc2)CC1)N1CCc2c([nH]c3ccccc23)C1c1cccnc1 (centres undefined)	> 100 µM	50.8 µM	> 100 µM	> 100 µM	> 100 µM	> 100 µM	49.5 µM	> 100 µM										
COc1cccc(C2c3cc4c(cc3OC(O)(CO)C2C(=O)O)OCO4)c1 (centres undefined) (tested in a mixture with another compound)	> 100 µM	> 100 µM	79.8 µM	> 100 µM	> 100 µM	> 100 µM	> 100 µM	> 100 µM										
CC(C)CC1=[N+]=C(NC#N)N=C(CCC(=O)Nc2ccccc2[N+](=O)[O-])C1	> 100 µM	> 100 µM	> 100 µM	> 100 µM	> 100 µM	> 100 µM	> 100 µM	> 100 µM										
